According to PMC3234165 (Biochemistry, 2011):

Key:
[1] = biological target: pure guinea pig sigma-1 receptor (Cavia porcellus, UniProt Q60492); experiment: Competitive displacement of [3H]-; type: binding
[2] = biological target: T1, α-1D (α-adrenergic receptor subtype 1D) (Homo sapiens, UniProt P25100); experiment: NIMH PDSP secondary binding assay
T1 sequence (P25100 1-572): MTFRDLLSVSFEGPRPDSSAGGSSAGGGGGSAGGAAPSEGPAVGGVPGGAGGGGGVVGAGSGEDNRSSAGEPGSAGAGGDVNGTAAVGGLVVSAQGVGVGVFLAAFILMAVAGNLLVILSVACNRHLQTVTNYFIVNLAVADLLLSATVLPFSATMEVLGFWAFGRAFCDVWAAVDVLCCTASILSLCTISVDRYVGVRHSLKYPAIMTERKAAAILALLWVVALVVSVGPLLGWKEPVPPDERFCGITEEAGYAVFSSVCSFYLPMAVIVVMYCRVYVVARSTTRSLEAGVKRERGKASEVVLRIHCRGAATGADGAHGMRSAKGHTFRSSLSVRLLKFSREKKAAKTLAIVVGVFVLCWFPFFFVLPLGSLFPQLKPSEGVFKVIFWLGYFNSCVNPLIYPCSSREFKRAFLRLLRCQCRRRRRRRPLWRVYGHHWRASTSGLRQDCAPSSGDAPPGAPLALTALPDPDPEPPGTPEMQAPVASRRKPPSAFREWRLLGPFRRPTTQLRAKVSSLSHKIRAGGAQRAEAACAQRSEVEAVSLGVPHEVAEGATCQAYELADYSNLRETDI

[3] = biological target: D1 (dopamine receptor type 1) (Homo sapiens, UniProt P21728); experiment: NIMH PDSP secondary binding assay
[4] = biological target: H2 (histamine receptor type 2) (Homo sapiens, UniProt P25021); experiment: NIMH PDSP secondary binding assay
[5] = biological target: M2 (muscarinic acetylcholine receptor type 2) (Homo sapiens, UniProt P08172); experiment: NIMH PDSP secondary binding assay
[6] = biological target: M3 (muscarinic acetylcholine receptor type 3) (Homo sapiens, UniProt P20309); experiment: NIMH PDSP secondary binding assay
[7] = biological target: M4 (muscarinic acetylcholine receptor type 4) (Homo sapiens, UniProt P08173); experiment: NIMH PDSP secondary binding assay
[8] = biological target: Kv1.4 potassium channel (Rattus norvegicus, UniProt P15385+Q9R0C9); experiment: Whole cell patch clamp, HEK-293 cells co-expressing Kv1.4 and sigma-1 receptor; type: cell-based
[9] = test system: HCT-15; experiment: Multiplex cytotoxicity assay; type: cell-based; conditions: Homo sapiens, HCT-15, read-out: IC50 HCT-15
[10] = biological target: D4 (dopamine receptor type 4) (Homo sapiens, UniProt P21917); experiment: NIMH PDSP secondary binding assay
[11] = biological target: sigma-1 receptor (sigma-1 sites) (Cavia porcellus, UniProt Q60492); experiment: Competitive displacement of [3H]-; type: binding, guinea pig
Sequence of sigma-1 receptor (sigma-1 sites) (Q60492 whole entry): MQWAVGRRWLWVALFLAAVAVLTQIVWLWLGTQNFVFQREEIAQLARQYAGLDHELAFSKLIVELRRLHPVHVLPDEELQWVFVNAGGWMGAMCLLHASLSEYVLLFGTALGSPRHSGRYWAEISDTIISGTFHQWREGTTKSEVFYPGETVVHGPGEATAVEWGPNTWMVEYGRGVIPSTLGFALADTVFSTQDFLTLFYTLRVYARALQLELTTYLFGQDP

Sequence of D1 (dopamine receptor type 1) (P21728 whole entry): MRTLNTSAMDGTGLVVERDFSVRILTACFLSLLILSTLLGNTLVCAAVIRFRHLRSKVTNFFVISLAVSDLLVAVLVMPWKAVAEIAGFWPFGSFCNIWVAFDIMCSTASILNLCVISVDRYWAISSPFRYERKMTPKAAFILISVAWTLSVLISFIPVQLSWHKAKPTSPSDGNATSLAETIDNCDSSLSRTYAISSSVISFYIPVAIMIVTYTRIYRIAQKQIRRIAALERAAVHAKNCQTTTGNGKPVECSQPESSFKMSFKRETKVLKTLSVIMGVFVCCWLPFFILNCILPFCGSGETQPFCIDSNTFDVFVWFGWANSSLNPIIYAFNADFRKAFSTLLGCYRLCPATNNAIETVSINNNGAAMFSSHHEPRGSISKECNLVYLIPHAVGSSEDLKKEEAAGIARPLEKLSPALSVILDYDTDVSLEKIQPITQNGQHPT
Sequence of M4 (muscarinic acetylcholine receptor type 4) (P08173 whole entry): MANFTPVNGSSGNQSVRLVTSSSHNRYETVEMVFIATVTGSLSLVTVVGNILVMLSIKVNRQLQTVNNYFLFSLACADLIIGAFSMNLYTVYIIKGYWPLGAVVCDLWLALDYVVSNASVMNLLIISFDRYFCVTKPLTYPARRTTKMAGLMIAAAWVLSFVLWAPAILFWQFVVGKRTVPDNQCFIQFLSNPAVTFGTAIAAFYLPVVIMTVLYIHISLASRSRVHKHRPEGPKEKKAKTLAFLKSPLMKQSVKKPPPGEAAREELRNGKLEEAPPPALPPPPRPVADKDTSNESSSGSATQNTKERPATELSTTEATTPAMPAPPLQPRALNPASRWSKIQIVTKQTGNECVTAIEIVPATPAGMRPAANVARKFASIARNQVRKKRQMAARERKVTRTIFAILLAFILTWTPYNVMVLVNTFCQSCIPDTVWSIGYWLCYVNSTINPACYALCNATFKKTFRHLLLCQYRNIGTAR
Sequence of M2 (muscarinic acetylcholine receptor type 2) (P08172 whole entry): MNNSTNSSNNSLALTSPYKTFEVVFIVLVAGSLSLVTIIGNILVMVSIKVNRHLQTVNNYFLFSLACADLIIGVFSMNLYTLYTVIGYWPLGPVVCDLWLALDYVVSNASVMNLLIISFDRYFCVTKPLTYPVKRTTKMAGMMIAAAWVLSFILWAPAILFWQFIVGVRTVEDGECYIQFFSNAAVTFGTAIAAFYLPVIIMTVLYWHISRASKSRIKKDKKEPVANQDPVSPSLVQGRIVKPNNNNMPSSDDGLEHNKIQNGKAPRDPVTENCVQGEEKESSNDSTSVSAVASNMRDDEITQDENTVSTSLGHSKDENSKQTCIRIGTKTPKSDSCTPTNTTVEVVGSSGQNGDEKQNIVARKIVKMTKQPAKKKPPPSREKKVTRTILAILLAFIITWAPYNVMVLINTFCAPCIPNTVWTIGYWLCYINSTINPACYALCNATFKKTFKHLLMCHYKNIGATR
Sequence of H2 (histamine receptor type 2) (P25021 whole entry): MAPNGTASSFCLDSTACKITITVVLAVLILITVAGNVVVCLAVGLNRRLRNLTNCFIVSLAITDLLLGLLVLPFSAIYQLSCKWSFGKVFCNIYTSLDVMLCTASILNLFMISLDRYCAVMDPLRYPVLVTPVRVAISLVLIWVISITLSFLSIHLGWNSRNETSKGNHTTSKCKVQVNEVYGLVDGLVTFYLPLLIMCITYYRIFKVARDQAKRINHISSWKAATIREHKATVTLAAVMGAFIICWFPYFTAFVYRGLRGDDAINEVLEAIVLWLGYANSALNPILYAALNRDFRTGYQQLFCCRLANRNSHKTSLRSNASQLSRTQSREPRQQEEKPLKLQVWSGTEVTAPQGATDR
Sequence of M3 (muscarinic acetylcholine receptor type 3) (P20309 whole entry): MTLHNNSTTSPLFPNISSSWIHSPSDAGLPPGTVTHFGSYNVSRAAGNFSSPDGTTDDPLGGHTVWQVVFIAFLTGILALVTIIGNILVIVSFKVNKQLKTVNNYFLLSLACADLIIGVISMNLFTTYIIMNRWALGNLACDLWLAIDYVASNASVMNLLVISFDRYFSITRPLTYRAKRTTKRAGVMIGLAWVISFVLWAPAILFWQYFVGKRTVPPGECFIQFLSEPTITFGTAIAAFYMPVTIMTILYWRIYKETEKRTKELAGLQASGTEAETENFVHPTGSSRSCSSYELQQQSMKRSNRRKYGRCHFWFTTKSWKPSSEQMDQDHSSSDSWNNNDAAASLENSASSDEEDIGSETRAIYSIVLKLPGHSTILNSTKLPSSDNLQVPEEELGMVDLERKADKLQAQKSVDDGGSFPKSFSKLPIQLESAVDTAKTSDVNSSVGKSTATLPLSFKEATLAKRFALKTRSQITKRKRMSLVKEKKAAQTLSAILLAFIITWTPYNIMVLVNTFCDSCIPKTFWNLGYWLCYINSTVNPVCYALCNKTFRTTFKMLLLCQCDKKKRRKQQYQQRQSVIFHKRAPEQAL
Sequence of D4 (dopamine receptor type 4) (P21917 whole entry): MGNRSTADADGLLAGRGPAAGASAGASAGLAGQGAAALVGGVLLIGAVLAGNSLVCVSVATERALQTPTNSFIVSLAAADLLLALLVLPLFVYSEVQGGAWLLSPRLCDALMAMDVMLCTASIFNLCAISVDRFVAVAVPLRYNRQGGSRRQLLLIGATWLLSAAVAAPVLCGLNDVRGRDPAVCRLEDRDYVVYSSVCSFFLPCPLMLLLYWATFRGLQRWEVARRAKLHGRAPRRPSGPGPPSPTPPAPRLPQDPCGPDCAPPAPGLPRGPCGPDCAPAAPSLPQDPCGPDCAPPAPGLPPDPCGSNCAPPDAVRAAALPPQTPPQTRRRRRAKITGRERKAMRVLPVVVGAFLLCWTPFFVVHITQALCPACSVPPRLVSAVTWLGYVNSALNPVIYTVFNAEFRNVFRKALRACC
Sequence of Kv1.4 potassium channel (P15385 whole entry): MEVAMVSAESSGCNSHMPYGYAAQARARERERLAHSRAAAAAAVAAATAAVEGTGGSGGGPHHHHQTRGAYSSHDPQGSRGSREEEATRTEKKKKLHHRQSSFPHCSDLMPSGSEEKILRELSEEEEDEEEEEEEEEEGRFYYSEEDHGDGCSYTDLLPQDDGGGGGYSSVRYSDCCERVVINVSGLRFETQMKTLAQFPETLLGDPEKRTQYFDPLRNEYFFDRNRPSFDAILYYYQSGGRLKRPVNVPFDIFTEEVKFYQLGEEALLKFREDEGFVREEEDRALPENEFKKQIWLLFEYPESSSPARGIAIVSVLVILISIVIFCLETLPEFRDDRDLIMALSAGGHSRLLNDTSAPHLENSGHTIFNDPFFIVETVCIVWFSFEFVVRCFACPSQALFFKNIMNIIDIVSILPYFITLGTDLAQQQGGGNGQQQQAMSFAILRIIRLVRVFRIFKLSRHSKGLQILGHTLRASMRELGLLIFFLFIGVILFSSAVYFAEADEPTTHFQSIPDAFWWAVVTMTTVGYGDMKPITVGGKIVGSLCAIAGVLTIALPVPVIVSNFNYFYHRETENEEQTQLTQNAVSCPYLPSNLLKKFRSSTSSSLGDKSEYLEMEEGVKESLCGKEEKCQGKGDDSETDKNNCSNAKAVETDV
Sequence of Kv1.4 potassium channel (Q9R0C9 whole entry): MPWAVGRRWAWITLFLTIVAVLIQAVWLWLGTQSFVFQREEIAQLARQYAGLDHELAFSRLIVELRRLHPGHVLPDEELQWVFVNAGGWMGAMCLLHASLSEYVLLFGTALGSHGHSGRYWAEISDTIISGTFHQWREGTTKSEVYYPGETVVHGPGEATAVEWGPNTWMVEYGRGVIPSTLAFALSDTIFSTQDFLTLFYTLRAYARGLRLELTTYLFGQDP
Sequence of pure guinea pig sigma-1 receptor (Q60492 whole entry): as the sequence (Q60492 whole entry) above

CCCCCCCNCCCc1ccccc1 [2a, N-(3-Phenylpropyl)heptan-1-amine]
Ki [1]: 0.018 ± 0.014 µM | Ki [2]: > 10 µM | Ki [3]: > 10 µM | Ki [4]: > 10 µM | Ki [5]: > 10 µM | Ki [6]: > 10 µM | Ki [7]: > 10 µM | IC50 [8]: 10 µM | IC50 [9]: 18 ± 12 µM

CCCCCCCCCCCCNCCCc1ccccc1 [3a, N-(3-Phenylpropyl)dodecan-1-amine]
Ki [2]: > 10 µM | Ki [3]: > 10 µM | Ki [10]: > 10 µM | Ki [4]: > 10 µM | Ki [5]: > 10 µM | Ki [6]: > 10 µM | Ki [7]: > 10 µM | IC50 [9]: > 100 µM

CCCCCCCCCCCCNCCCc1ccc([N+](=O)[O-])cc1 [3b, N-(3-(4-Nitrophenyl)propyl)dodecan-1-amine]
Ki [11]: 5.1 ± 0.2 µM | Ki [2]: 9 µM | Ki [3]: > 10 µM | IC50 [9]: 25 µM
